# Results: ChEMBL document CHEMBL5465560, “Selectivity Literature for EUbOPEN Chemogenomic Library” (2024)
# What was measured:
# [1] = target: Serine/threonine-protein kinase Nek6 (Homo sapiens) (UniProt Q9HC98); assay: Selectivity interaction (KinomeScan (DiscoverX)) EUB0001049a NEK6; settings: at 1 µM
# [2] = tested on: Tyrosine-protein kinase ABL1 (Homo sapiens), P00519 [H396P]; assay: (§1) Selectivity interaction (KinomeScan (DiscoverX)) EUB0000666a ABL1; settings: at 10 µM
# [3] = tested on: Tyrosine-protein kinase ABL1 (Homo sapiens), P00519 [F317L]; assay: as §1; settings: at 10 µM
# [4] = tested on: Tyrosine-protein kinase ABL1 (Homo sapiens), P00519 [T315I]; assay: as §1; settings: at 10 µM
# [5] = tested on: Tyrosine-protein kinase ABL1 (Homo sapiens), P00519 [F317I]; assay: as §1; settings: at 10 µM
# [6] = tested on: Tyrosine-protein kinase ABL1 (Homo sapiens), P00519 [E255K]; assay: as §1; settings: at 10 µM
# [7] = target: Tyrosine-protein kinase ABL1 (Homo sapiens, UniProt P00519); assay: as §1; settings: at 10 µM
# [8] = tested on: Tyrosine-protein kinase ABL1 (Homo sapiens), P00519 [Q252H]; assay: as §1; settings: at 10 µM
# [9] = target: T1, Serine/threonine-protein kinase DCLK1 (Homo sapiens) (UniProt O15075); settings: at 10 µM
# T1 sequence (whole entry): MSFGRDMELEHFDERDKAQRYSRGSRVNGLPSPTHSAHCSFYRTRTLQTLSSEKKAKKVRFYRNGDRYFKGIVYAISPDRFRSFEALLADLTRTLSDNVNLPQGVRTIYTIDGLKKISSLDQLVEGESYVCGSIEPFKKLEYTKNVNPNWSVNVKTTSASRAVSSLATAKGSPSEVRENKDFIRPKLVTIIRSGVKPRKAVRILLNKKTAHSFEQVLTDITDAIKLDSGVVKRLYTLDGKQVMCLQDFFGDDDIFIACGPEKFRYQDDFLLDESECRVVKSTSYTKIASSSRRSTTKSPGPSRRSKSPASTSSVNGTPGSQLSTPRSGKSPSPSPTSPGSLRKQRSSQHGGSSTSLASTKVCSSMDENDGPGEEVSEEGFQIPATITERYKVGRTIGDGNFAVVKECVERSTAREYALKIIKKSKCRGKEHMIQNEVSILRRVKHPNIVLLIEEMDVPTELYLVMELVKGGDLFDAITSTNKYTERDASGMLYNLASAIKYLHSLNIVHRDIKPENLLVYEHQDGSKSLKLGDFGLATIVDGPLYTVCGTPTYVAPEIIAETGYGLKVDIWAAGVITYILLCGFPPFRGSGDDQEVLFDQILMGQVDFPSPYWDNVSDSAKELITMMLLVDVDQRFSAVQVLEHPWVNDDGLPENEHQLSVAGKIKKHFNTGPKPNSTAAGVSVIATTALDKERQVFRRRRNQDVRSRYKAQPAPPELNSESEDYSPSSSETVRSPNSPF
# [10] = target: T2, Serine/threonine-protein kinase DCLK2 (Homo sapiens) (UniProt Q8N568); assay: Selectivity interaction (KinomeScan (DiscoverX)) EUB0000092b DCLK2; settings: at 10 µM
# T2 sequence (whole entry): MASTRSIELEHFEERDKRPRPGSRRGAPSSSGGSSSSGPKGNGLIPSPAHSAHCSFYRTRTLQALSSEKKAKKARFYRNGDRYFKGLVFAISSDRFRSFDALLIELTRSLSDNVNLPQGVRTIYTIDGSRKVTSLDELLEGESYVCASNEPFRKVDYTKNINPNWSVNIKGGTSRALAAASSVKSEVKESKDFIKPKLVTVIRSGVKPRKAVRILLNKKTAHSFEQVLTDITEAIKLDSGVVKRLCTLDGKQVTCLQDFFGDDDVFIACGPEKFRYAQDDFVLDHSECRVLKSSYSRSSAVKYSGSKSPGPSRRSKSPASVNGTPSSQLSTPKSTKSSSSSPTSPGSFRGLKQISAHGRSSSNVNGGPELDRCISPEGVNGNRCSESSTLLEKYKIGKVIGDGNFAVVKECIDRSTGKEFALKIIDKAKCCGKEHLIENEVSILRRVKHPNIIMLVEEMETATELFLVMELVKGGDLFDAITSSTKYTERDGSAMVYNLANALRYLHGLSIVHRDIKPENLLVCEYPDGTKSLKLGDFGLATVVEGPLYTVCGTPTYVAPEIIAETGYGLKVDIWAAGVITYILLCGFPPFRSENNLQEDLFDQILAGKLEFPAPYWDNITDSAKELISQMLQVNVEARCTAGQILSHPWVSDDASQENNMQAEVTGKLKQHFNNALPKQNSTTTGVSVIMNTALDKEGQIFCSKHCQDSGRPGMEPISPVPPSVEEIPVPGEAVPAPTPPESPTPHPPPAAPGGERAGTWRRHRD
# [11] = target: Phosphatidylinositol 4-phosphate 5-kinase type-1 alpha (Homo sapiens) (UniProt Q99755); assay: Selectivity interaction (Ambit KINOMEscan and KiNATiv profiling in Jurkat cells) EUB0000090b PIP5K1A; format: cell-based; settings: at 1 µM
# Sequence of Phosphatidylinositol 4-phosphate 5-kinase type-1 alpha (Homo sapiens) (Q99755 whole entry): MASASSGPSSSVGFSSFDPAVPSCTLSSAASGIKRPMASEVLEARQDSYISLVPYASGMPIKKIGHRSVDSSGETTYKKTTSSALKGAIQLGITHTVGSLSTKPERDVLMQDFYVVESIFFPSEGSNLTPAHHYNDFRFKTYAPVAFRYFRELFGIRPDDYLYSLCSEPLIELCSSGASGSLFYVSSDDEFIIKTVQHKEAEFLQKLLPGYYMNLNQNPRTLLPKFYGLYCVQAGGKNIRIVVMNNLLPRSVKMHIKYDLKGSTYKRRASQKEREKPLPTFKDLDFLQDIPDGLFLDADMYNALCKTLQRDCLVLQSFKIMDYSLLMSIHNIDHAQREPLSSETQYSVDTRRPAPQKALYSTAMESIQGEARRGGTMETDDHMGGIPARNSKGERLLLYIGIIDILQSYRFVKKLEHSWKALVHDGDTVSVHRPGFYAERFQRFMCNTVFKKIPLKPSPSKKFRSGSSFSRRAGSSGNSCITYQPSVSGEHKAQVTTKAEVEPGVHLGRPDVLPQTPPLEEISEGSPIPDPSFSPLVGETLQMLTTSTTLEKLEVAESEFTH
# [12] = target: Protein arginine N-methyltransferase 5 (Homo sapiens, UniProt O14744); assay: Selectivity interaction (Scintillation proximity assays) EUB0000255b PRMT5
# Sequence of Protein arginine N-methyltransferase 5 (O14744 whole entry): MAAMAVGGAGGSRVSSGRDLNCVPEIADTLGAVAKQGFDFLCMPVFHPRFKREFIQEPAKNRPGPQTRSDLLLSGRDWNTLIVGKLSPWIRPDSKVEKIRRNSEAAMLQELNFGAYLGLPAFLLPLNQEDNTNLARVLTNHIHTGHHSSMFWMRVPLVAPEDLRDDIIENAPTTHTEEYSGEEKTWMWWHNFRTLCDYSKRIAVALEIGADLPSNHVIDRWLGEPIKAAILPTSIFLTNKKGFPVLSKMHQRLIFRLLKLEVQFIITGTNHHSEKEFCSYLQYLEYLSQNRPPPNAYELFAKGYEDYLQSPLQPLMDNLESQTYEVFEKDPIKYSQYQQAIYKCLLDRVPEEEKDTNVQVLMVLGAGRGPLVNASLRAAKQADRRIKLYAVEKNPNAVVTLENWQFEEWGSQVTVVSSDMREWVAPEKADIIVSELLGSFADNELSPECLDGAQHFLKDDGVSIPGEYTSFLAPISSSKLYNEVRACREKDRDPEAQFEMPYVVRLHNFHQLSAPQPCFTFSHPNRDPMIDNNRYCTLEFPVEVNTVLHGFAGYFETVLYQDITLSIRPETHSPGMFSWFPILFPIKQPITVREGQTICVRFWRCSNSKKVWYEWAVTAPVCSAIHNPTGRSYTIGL
# [13] = target: T3, Serine/threonine-protein kinase RIO3 (Homo sapiens) (UniProt O14730); settings: at 10 µM
# T3 sequence (whole entry): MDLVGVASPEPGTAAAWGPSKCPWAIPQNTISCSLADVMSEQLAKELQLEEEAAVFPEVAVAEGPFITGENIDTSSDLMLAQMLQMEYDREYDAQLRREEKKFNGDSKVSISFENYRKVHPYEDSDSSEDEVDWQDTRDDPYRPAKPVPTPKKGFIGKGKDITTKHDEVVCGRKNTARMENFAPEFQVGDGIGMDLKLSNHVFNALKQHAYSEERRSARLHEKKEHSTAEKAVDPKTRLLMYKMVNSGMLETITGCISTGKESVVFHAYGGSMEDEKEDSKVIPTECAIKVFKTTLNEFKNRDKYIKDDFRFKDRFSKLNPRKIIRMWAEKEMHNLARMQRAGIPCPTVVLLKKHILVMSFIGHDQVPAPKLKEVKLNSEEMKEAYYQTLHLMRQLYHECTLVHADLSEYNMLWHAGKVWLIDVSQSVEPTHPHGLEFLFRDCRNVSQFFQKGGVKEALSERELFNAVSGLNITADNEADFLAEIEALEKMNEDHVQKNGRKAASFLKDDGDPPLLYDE
# [14] = target: MAP kinase-interacting serine/threonine-protein kinase 2 (Homo sapiens, UniProt Q9HBH9); assay: Selectivity interaction (KinomeScan (DiscoverX)) EUB0000655a MKNK2; settings: at 10 µM
# Sequence of MAP kinase-interacting serine/threonine-protein kinase 2 (Q9HBH9 whole entry, looked up): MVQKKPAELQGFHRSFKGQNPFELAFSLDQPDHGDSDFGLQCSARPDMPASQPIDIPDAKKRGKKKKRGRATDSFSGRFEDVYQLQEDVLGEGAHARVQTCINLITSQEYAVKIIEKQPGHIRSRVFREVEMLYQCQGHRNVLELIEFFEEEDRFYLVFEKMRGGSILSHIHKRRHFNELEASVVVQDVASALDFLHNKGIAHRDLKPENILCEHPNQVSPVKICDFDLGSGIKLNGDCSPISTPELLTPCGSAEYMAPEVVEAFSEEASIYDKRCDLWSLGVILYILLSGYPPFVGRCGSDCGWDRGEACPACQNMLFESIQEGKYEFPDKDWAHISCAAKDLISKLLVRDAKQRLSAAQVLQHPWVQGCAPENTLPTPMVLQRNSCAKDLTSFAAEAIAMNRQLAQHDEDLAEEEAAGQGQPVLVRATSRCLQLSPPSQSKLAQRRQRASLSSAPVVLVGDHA
# Sequence of Serine/threonine-protein kinase Nek6 (Homo sapiens) (Q9HC98 whole entry): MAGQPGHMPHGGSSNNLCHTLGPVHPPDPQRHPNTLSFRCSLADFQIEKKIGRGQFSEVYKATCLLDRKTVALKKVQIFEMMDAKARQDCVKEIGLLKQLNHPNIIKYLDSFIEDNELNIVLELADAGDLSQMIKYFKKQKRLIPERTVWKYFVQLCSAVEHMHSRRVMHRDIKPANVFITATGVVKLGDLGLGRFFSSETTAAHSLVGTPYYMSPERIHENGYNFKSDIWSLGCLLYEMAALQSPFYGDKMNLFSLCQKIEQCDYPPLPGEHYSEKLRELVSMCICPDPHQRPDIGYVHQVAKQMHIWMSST
smiles,measurement,setting,value
COc1cc(Nc2nc(C)cc(-c3cnn4nc(OC)ccc34)n2)cc(C(F)(F)F)c1,% of control,[1],89%
O=C(NOC[C@H](O)CO)c1ccc(F)c(F)c1Nc1ccc(I)cc1F,% of control,[2],100%
same,% of control,[3],100%
same,% of control,[4],82%
same,% of control,[5],100%
same,% of control,[6],100%
same,% of control,[7],77%
same,% of control,[8],100%
CCN(CC)CCCCNc1ncc2cc(-c3cc(OC)cc(OC)c3)c(NC(=O)NC(C)(C)C)nc2n1,% of control,[9],100%
CCC(=O)N1CCN(c2ccc(-n3c(=O)ccc4cnc5ccc(-c6cnc7ccccc7c6)cc5c43)cc2C(F)(F)F)CC1,% of control,[10],100%
CN(C)C/C=C/C(=O)Nc1ccc(C(=O)N2CCCC(Nc3ncc(Cl)c(-c4c[nH]c5ccccc45)n3)C2)cc1 (centres undefined),% of control,[11],78%
COCCN1CCC(c2cc(CN(C)C(=O)c3cccc(Oc4ccccc4)c3)ccn2)CC1,IC50,[12],> 10 µM
Cc1cc([C@@H](C)Nc2ccccc2C(=O)O)c2nc(N3CCOCC3)cc(=O)n2c1 [AZD-6482],% of control,[13],100%
CN(C)CCOc1ccc(-c2nc(-c3ccncc3)c(-c3ccc4c(c3)CC/C4=N\O)[nH]2)cc1,% of control,[14],95%
